Tested on: spontaneously hypertensive rats (SHR)
Assay: Antihypertensive effect, oral administration to spontaneously hypertensive rats (mean blood pressure and heart rate)
Format: in vivo, rat
Details: SHR, p.o.; for Changes in average blood pressures after administration: Table 3; for Change in blood pressure after 3 hrs. from administration: Table 1
Method: Antihypertensive effect was determined by oral administration of the test compound to spontaneously hypertensive rats (hereinafter referred to as SHR).
These SHR were anesthetized with ether and chronically embedded with a cannula for determination of blood pressure so that one end of the said cannula may be placed in abdominal aorta and the other end thereof may be projected out of dorsal neck. When rats regained their body weight before operation in more than 1 week from operation, the test compound was given. Determination was made by measuring a mean blood pressure and a heart rate under unanesthetized and unrestrained conditions with the cannula connected to an electronic recording system. The test compound was suspended in a 1% tragacanth gum solution to make up a concentration so as to be a volume of 5 ml./kg. and then orally given.

Compound	Changes in average blood pressures after administration (3 mg./kg., 1 hr.) [mmHg]	Changes in average blood pressures after administration (3 mg./kg., 3 hrs.) [mmHg]	Changes in average blood pressures after administration (3 mg./kg., 6 hrs.) [mmHg]	Changes in average blood pressures after administration (3 mg./kg., 24 hrs.) [mmHg]	Change in blood pressure after 3 hrs. from administration (10 mg./kg., 3 hrs.) [mmHg]	also measured
2-{4-[3-(5-Chlorothiophen-2-yl)-acryloyl]-piperazin-1-yl}-4-amino-6,7-dimethoxyquinazoline [compound 42]	-6	-6	-7	-2	–	–
COc1cc2nc(N3CCN(C(=O)C=Cc4ccccc4C)CC3)nc(N)c2cc1OC [compound 2, 2-[4-(2-Methylcinnamoyl)-piperazin-1-yl]-4-amino-6,7-dimethoxyquinazoline]	–	–	–	–	-43	–
COc1cc2nc(N3CCN(C(=O)C=Cc4cccc(C)c4)CC3)nc(N)c2cc1OC [compound 3, 2-[4-(3-Methylcinnamoyl)-piperazin-1-yl]-4-amino-6,7-dimethoxyquinazoline]	–	–	–	–	-35	–
COc1cc2nc(N3CCN(C(=O)C=Cc4ccc(C)cc4)CC3)nc(N)c2cc1OC [compound 4, 2-[4-(4-Methylcinnamoyl)-piperazin-1-yl]-4-amino-6,7-dimethoxyquinazoline]	–	–	–	–	-18	–
COc1cccc(C=CC(=O)N2CCN(c3nc(N)c4cc(OC)c(OC)cc4n3)CC2)c1 [compound 7, 2-[4-(3-Methoxycinnamoyl)-piperazin-1-yl]-4-amino-6,7-dimethoxyquinazoline]	–	–	–	–	-18	–
COc1cc(C=CC(=O)N2CCN(c3nc(N)c4cc(OC)c(OC)cc4n3)CC2)cc(OC)c1 [compound 13, 2-[4-(3,5-Dimethoxycinnamoyl)-piperazin-1-yl]-4-amino-6,7-dimethoxyquinazoline]	–	–	–	–	-12	–
COc1cc2nc(N3CCN(C(=O)C=Cc4ccc(OC)c(OC)c4OC)CC3)nc(N)c2cc1OC [compound 14, 2-[4-(2,3,4-Trimethoxycinnamoyl)-piperazin-1-yl]-4-amino-6,7-dimethoxyquinazoline]	–	–	–	–	-22	–
C=CCOc1ccc(C=CC(=O)N2CCN(c3nc(N)c4cc(OC)c(OC)cc4n3)CC2)cc1 [compound 17, 2-[4-(4-Allyloxycinnamoyl)-piperazin-1-yl]-4-amino-6,7-dimethoxyquinazoline]	–	–	–	–	-18	–
COc1cc2nc(N3CCN(C(=O)C=Cc4ccc(Br)cc4)CC3)nc(N)c2cc1OC [compound 21, 2-[4-(4-Bromocinnamoyl)-piperazin-1-yl]-4-amino-6,7-dimethoxyquinazoline]	–	–	–	–	-22	–
COc1cc2nc(N3CCN(C(=O)C=Cc4cccc(C(F)(F)F)c4)CC3)nc(N)c2cc1OC [compound 22, 2-[4-(3-Trifluoromethylcinnamoyl)-piperazin-1-yl]-4-amino-6,7-dimethoxyquinazoline]	–	–	–	–	-10	–
COc1cc2nc(N3CCN(C(=O)C=Cc4ccc(N(C)C)cc4)CC3)nc(N)c2cc1OC [compound 23, 2-[4-(4-Dimethylaminocinnamoyl)-piperazin-1-yl]-4-amino-6,7-dimethoxyquinazoline]	–	–	–	–	-15	–
COc1cc2nc(N3CCN(C(=O)C=Cc4ccoc4)CC3)nc(N)c2cc1OC [compound 29, 2-{4-[3-(Furan-3-yl)-acryloyl]-piperazin-1-yl]-4-amino-6,7-dimethoxyquinazoline]	–	–	–	–	–	Changes in average blood pressures after administration (1 mg./kg., 1 hr.): -25 mmHg; Changes in average blood pressures after administration (1 mg./kg., 3 hrs.): -28 mmHg; Changes in average blood pressures after administration (1 mg./kg., 6 hrs.): -37 mmHg; Changes in average blood pressures after administration (1 mg./kg., 24 hrs.): -17 mmHg
COc1cc2nc(N3CCN(C(=O)C=Cc4ccc(C)o4)CC3)nc(N)c2cc1OC [compound 30, 2-{4-[3-(5-Methylfuran-2-yl)-acryloyl]-piperazin-1-yl}-4-amino-6,7-dimethoxyquinazoline]	–	–	–	–	–	Changes in average blood pressures after administration (1 mg./kg., 1 hr.): -13 mmHg; Changes in average blood pressures after administration (1 mg./kg., 3 hrs.): -12 mmHg; Changes in average blood pressures after administration (1 mg./kg., 6 hrs.): -15 mmHg; Changes in average blood pressures after administration (1 mg./kg., 24 hrs.): 0 mmHg
COc1cc2nc(N3CCN(C(=O)C(C)=Cc4ccco4)CC3)nc(N)c2cc1OC [compound 31, 2-{4-[2-Methyl-3-(furan-2-yl)-acryloyl]-piperazin-1-yl}-4-amino-6,7-dimethoxyquinazoline]	–	–	–	–	–	Changes in average blood pressures after administration (1 mg./kg., 1 hr.): -22 mmHg; Changes in average blood pressures after administration (1 mg./kg., 3 hrs.): -23 mmHg; Changes in average blood pressures after administration (1 mg./kg., 6 hrs.): -24 mmHg; Changes in average blood pressures after administration (1 mg./kg., 24 hrs.): -6 mmHg
COc1cc2nc(N3CCN(C(=O)C=Cc4ccc([N+](=O)[O-])o4)CC3)nc(N)c2cc1OC [compound 33, 2-{4-[3-(5-Nitrofuran-2-yl)-acryloyl]-piperazin-1-yl}-4-amino-6,7-dimethoxyquinazoline]	-15	-20	-11	3	–	–
COc1cc2nc(N3CCN(C(=O)C=Cc4ccc(Cl)o4)CC3)nc(N)c2cc1OC [compound 34, 2-{4-[3-(5-chlorofuran-2-yl)-acryloyl]-piperazin-1-yl}-4-amino-6,7-dimethoxyquinazoline]	-20	-26	-28	0	–	–
COc1cc2nc(N3CCN(C(=O)C=Cc4cccs4)CC3)nc(N)c2cc1OC [compound 35, 2-{4-[3-(Thiophen-2-yl)-acryloyl]-piperazin-1-yl}-4-amino-6,7-dimethoxyquinazoline]	-45	-27	-42	-2	–	Changes in average blood pressures after administration (1 mg./kg., 1 hr.): -27 mmHg; Changes in average blood pressures after administration (1 mg./kg., 3 hrs.): -25 mmHg; Changes in average blood pressures after administration (1 mg./kg., 6 hrs.): -25 mmHg; Changes in average blood pressures after administration (1 mg./kg., 24 hrs.): 0 mmHg
COc1cc2nc(N3CCN(C(=O)C=Cc4ccsc4)CC3)nc(N)c2cc1OC [compound 36, 2-{4-[3-(Thiophen-3-yl)-acryloyl]-piperazin-1-yl}-4-amino-6,7-dimethoxyquinazoline]	-47	-30	-35	0	–	Changes in average blood pressures after administration (1 mg./kg., 1 hr.): -18 mmHg; Changes in average blood pressures after administration (1 mg./kg., 3 hrs.): -20 mmHg; Changes in average blood pressures after administration (1 mg./kg., 6 hrs.): -27 mmHg; Changes in average blood pressures after administration (1 mg./kg., 24 hrs.): 3 mmHg
COc1cc2nc(N3CCN(C(=O)C=Cc4sccc4C)CC3)nc(N)c2cc1OC [compound 37, 2-{4-[3-(3-Methylthiophen-2-yl)-acryloyl]-piperazin-1-yl}-4-amino-6,7-dimethoxyquinazoline]	-18	-18	-18	5	–	–
COc1cc2nc(N3CCN(C(=O)C=Cc4ccc(C)s4)CC3)nc(N)c2cc1OC [compound 38, 2-{4-[3-(5-Methylthiophen-2-yl)-acryloyl]-piperazin-1-yl}-4-amino-6,7-dimethoxyquinazoline]	-18	-27	-18	-2	–	–
COc1cc2nc(N3CCN(C(=O)C(C)=Cc4cccs4)CC3)nc(N)c2cc1OC [compound 39, 2-{4-[2-Methyl-3-(thiophen-2-yl)-acryloyl]-piperazin-1-yl}-4-amino-6,7-dimethoxyquinazoline]	-65	-27	-35	-15	–	Changes in average blood pressures after administration (1 mg./kg., 1 hr.): -18 mmHg; Changes in average blood pressures after administration (1 mg./kg., 3 hrs.): -12 mmHg; Changes in average blood pressures after administration (1 mg./kg., 6 hrs.): -13 mmHg; Changes in average blood pressures after administration (1 mg./kg., 24 hrs.): 3 mmHg
COc1cc2nc(N3CCN(C(=O)C=Cc4ccccn4)CC3)nc(N)c2cc1OC [compound 43, 2-{4-[3-(Pyridin-2-yl)-acryloyl]-piperazin-1-yl}-4-amino-6,7-dimethoxyquinazoline]	-40	-22	-30	8	–	Changes in average blood pressures after administration (10 mg./kg., 1 hr.): -23 mmHg; Changes in average blood pressures after administration (10 mg./kg., 3 hrs.): -22 mmHg; Changes in average blood pressures after administration (10 mg./kg., 6 hrs.): -18 mmHg; Changes in average blood pressures after administration (10 mg./kg., 24 hrs.): -3 mmHg
COc1cc2nc(N3CCN(C(=O)C=Cc4cccnc4)CC3)nc(N)c2cc1OC [compound 44, 2-{4-[3-(Pyridin-3-yl)-acryloyl]-piperazin-1-yl}-4-amino-6,7-dimethoxyquinazoline]	-28	-15	-25	3	–	–

— US4189484A, “Antihypertensive quinazoline derivatives” (priority 1977, dated 1980)
